From publication doi:10.1101/2024.05.17.594634, “Protein Structure Inspired Drug Discovery” (bioRxiv, 2024)

Experiments:
Assay type in all cases: cell-based, human
[1] = tested on: melanoma cell lines; experiment: NCI-60 cell line screen, melanoma cell lines; conditions: 10 μM X 48 hours
Procedure: Above findings support the importance of Dxr2 and FolC2 sites, and of Dxr2-017 and FolC2-001 compounds, respectively. The predicted poses of Dxr2-017 bound to the Dxr2 site and FolC2-001 bound to the FolC2 site are shown (Fig 7). The NCI-60 cell line screen evaluates compound growth inhibition and cell toxicity in a highly standardized manner across 60 different cell lines. Dxr2-017 and FolC2-001 were evaluated in this assay (S5 Fig). NCI-60 screens evaluate compounds at 10 μM X 48 hours. […] Of high interest, in the NCI-60 screen Dxr2-017 had relatively high activity against melanoma cell lines, inducing cell death in 5 cell lines ranging from 25–65%, and inhibiting growth in 4 cell lines ranging from 76–96%. Its impact on cell death represents the most striking relative difference in response across cell lines.

[2] = tested on: MDA-MB-231 breast cancer cells; experiment: Eight-day colony formation assay, MDA-MB-231; conditions: for efficacy ratio (cancer cell colonies to bone marrow colonies at 8 days): MDAMB231
Procedure: (§1) We sought to identify compounds that would inhibit the growth of cancer cells, but that also did so selectively. Inhibition of cancer cell growth is a highly sought after attribute of anticancer agents. This was assessed by measuring the ability of a compound to inhibit cell growth in eight-day colony formation assays, examining concentrations ranging from 0.017 to 40 μM. Breast, colon, lung and prostate cancer are four of the most common causes of cancer in the United States, are major causes of cancer cell death, and were examined.[64] Two cell lines for each cancer type were assessed: A549 (adenocarcinoma) and H226 (squamous carcinoma) for lung, MCF-7 (estrogen receptor [ER] positive) and MDA-MB-231 (ER negative) for breast, LNCaP (androgen receptor [AR] positive) and PC3-M (AR negative) for prostate, and HCT116 (wild type p53, mutated KRAS) and HT29 (p53 mutant) for colon.[65]
(§2) In considering effect on cancer cells, for each compound and each cell line tested we calculated the efficacy ratio, i.e., efficacy ratio = (percent of remaining cancer cell colonies)/(percent of remaining bone marrow colonies), at 8 days after treatment with 40 μM compound (S4 Fig). We considered those with an efficacy ratio below 0.5 as active and at least partially selective. The stringency of this is highlighted by considering the effect of 5FU on colon cancer, where it is frequently used clinically in proven curative settings, as well as proven life prolonging settings.[70, 71] […] Even at 5.7 μM, where 5FU is toxic to bone marrow, with hematopoietic colony formation at 38% of control, the efficacy ratio for HT29 cells has only dropped to 0.52. […] It can be seen that compounds segregate to protein sites. Specifically, of 10 compounds meeting this activity criteria (i.e., efficacy ratio <0.5), 3 were directed at the Dxr2 site, 3 at FolC2, 2 at FolC1, 1 at Dxr1 and 1 at TYLT.
(§3) Eight-day colony formation assays of cancer cells were performed as described by us.[87] Briefly, 0.5–1.0 × 10^3 cells were seeded into a 12 well plate, after 24 hours compound added and eight days later colonies (of 3 or more cells) were scored after trypan blue staining. Conditions were in replicates of N = 2. All compounds were stored under desiccated conditions in a sealed container at minus 20°C upon arrival. One day prior to use, they were placed into DMSO, stored at […] as stock solutions, thawed just prior to use, and not reused.

[3] = tested on: SK-MEL-5 cells; experiment: Western blot for cleaved caspase 3, SK-MEL-5; conditions: 3 days, up to 20 μM
Procedure: (§4) Fig 8. Dxr2-017 inhibits melanoma cell growth through induction of anoikis. (A) Inhibition of melanoma cell growth. Cells were treated with different concentrations of Dxr2-017 and formation of colonies at eight days depicted. Data are expressed as percent of untreated control and are the mean ± SEM (N=3 replicates) of a single experiment. (B) No effect on cycle progression. M14 and SK-MEL-5 cells were treated for 8 days with 20 and 50 nM Dxr2-017, respectively, and phase of cell cycle determined by flow cytometry. Data are the mean ± SEM (N=3). *denotes P-value ≤0.05. (C) Transition to floating cells. Cells were treated for three days with different Dxr2-017 concentrations. Depicted are representative light photomicrographs at 20X; scale bar is150 μm. Blue and green arrows denote adherent and floating cells, respectively. (D) Cleaved caspase 3 is induced in floating cells. Cells were treated for 3 days, cell lysate from only adherent cells, or from adherent and floating cells combined, was probed by Western blot for cleaved caspase 3. All experiments were repeated at separate times, yielding similar results.
(§5) We then assessed whether Dxr2-017 was inducing apoptosis. […] These findings raised the possibility that Dxr2-017 was inducing anoikis, a process in which programmed cell death occurs upon cell detachment.[72, 73] […]

[4] = tested on: MCF-7 breast cancer cells; experiment: Eight-day colony formation assay, MCF-7
Procedure: as §1, §2, §3

[5] = tested on: M14 cells; experiment: Western blot for cleaved caspase 3, M14; conditions: 3 days, up to 10 μM
Procedure: as §4, §5

[6] = tested on: LNCaP prostate cancer cells; experiment: Eight-day colony formation assay, LNCaP
Procedure: as §1, §2, §3

c1ccc2sc(-c3ccc(CNc4ccc5nnnn5n4)o3)nc2c1 [Dxr2-017]
cell death ([1]; range over 5 melanoma cell lines): 25–65% | inhibition at 10 µM ([1]; Homo sapiens, range over 4 melanoma cell lines, read-out: growth inhibition): 76 to 96% | efficacy ratio (cancer cell colonies to bone marrow colonies at 8 days) ([2]; 5.7 μM): 0.05 | efficacy ratio (cancer cell colonies to bone marrow colonies at 8 days) ([2]; 40 μM): 0.00 | inhibition at 0.12 µM ([2]; Homo sapiens, 0.12 μM, MDA-MB-231, mean ± SD, read-out: inhibition of colony formation compared to control): 81.7 ± 15.5% | cleaved caspase 3, adherent cells only [3]: did not detect any induction of cleaved caspase 3 | cleaved caspase 3, floating and adherent cells combined [3]: clear formation | efficacy ratio (cancer cell colonies to bone marrow colonies at 8 days) ([4]; 5.7 μM): 0.39 | efficacy ratio (cancer cell colonies to bone marrow colonies at 8 days) ([4]; 40 μM): 0.02 | cleaved caspase 3, adherent cells only [5]: did not detect any induction of cleaved caspase 3 | cleaved caspase 3, floating and adherent cells combined [5]: clear formation | efficacy ratio (cancer cell colonies to bone marrow colonies at 8 days) ([6]; 5.7 μM): 0.49 | efficacy ratio (cancer cell colonies to bone marrow colonies at 8 days) ([6]; 40 μM): 0.05
